Key:
Assay type in all cases: cell-based
[1] = test system: AKT phosphorylation; test: Immunoblot of AKT phosphorylation; conditions: MRT cells; drug treatment for 1 hour (FIG. 3H)
Procedure: (§1) After the indicated treatments, cells were lysed in RIPA lysis buffer at 4° C. Lysates were loaded onto SDS-PAGE gels followed by blotting onto PVDF membranes.
(§2) Details of antibodies, immunoprecipitation and immunofluorescence analyses are as follows. For immunoblotting, cells were lysed in RIPA lysis buffer supplemented with protease and phosphatase inhibitors (Thermo Pierce) at 4° C. Lysates were loaded onto SDS-PAGE gels followed by blotting onto PVDF membranes as described (Iwai et al., 2013). Blots were probed with primary antibodies followed by corresponding horseradish peroxidase-conjugated secondary antibodies. Primary antibodies include anti-PDGFRα #3174, CST; anti-pAKT (S473) #4058, CST; anti-AKT #4691, CST; anti-pERK-T202/Y204 #4370, CST; anti-ERK #9102, CST; anti-FGFR1 #76464, abcam; anti-BAF47 (SMARCB1) #61211, BD; anti-TFR #13-6890, ThermoFisherScientific; anti-pY1000 #8954, CST and anti-α-Tubulin #T5168, Sigma. Secondary antibodies include Polyclonal Goat Anti-Rabbit HRP #P0448, Dako and Anti-Mouse HRP #G32-62G-1000, Signalchem. Immunoreactive bands were visualized by chemiluminescence (Amersham) and the blots were exposed to x-ray XAR film (Kodak).

[2] = target: T1, PDGFRα phosphorylation (Homo sapiens, UniProt P16234); test: Immunoprecipitation of PDGFRα and phosphotyrosine immunoblot; conditions: A204 cells; 1 μM for 1 hour
T1 construct: Immunoprecipitation of PDGFRα followed by immunoblotting with phosphotyrosine-specific antibody (PY1000) in A204 cells; endogenous in cells; host or cells: A204 cells
Procedure: For immunoprecipitation, cells were lysed in RIPA lysis buffer (contained 1% Triton) supplemented with protease and phosphatase inhibitors (Thermo Pierce) at 4° C. After microcentrifugation at 2,000 rpm. for 10 min, 200 μg of lysate was diluted in 200 ul lysis buffer. […] Protein G plus agarose beads were added and incubated for three hours at 4° C. to collect immune complexes, washed five times with lysis buffer and eluted in sample buffer. Proteins were resolved by SDS-PAGE, transferred to PVDF membrane and immunoblotting was performed as described above.

[3] = test system: Pazopanib resistant A204 cells (PazR); test: Cell viability in acquired resistant subline; conditions: Homo sapiens
Procedure: (§3) Cells were grown initially in DMEM media containing drug concentration of 500 nM. The drug was incremented when the cells had proliferated to near confluency alongside minimal visible cell death. Drug concentration was incremented from 2 μM, 3 μM and 5 μM in a stepwise manner over 6 weeks. A final drug concentration of 5 μM was maintained in resistant cells. Media and drug were replenished twice weekly.
(§4) 2000 cells/well were seeded in a 96-well plate and treated with inhibitors at the indicated dose and combinations for 24 h for apoptosis measurement by Caspase-Glo 3/7 Assay (Promega), or for 72 hours in cell viability measurements by WST-1 (Abcam), following the manufacturer's recommendations. IC50 data were generated from dose-response curves fitted using a four-parameter regression fit in PRISM 5 software (GraphPad).

[4] = test system: PazR cells; test: Annexin V staining, automated imaging
Procedure: as §3
Details for annexin V staining and siRNA transfections are as follows. For Annexin V staining, 3000 cells/well were seeded into 96-well CellCarrier plates (Perkin Elmer). 24 h after seeding, drugs were added and incubated for an additional 48 h. FITC-Annexin V (BD Biosciences) and Hoechst 33342 (Tocris) diluted in 10× annexin binding buffer (0.1M HEPES, 1.4M NaCl, 25 mM CaCl2) was added and incubated at 37° C. for 15 minutes. Plates were imaged using an Operetta high-content imager (Perkin Elmer). Images were analysed using Harmony software (Perkin Elmer), and annexin positivity defined as number of annexin-FITC-positive cells relative to total number of Hoechst-positive nuclei. The interaction between drugs was analysed by the Chou and Talalay median effect principle as described (Todd et al., 2014). siRNA transfections were performed as follows, 2000 cells/well were reverse transfected in 96-well plates with SMARTpool siRNAs (Dharmacon) using Lullaby reagent (Oz Biosciences). Where indicated, cells were treated with vehicle or drug 24 h post transfection. Apoptosis and cell viability were measured using Caspase 3/7 Glo and Cell Titre Glo (Promega), respectively, 72-96 h post transfection according to manufacturer's instructions and normalised to cells transfected with a non-targeting siRNA pool.

[5] = test system: A204 cells (parental, MRT cell line); test: Cell viability (WST-1) dose response; conditions: for effect on cell viability: A204 cells, dose response; for IC50: Homo sapiens, cell viability
Procedure: (§5) For SILAC experiments, A204 cells and resistant sublines were cultured in SILAC DMEM media (Thermo Fisher Scientific) supplemented with light lysine and arginine (ROKO) (Sigma) and heavy lysine and arginine (R10K8) (Goss Scientific) respectively.
as §4

[6] = test system: ERK1/2 phosphorylation; test: Immunoblot of ERK1/2 phosphorylation; conditions: MRT cells; drug treatment for 1 hour (FIG. 3H)
Procedure: as §1, §2

[7] = test system: Dasatinib resistant A204 cells (DasR); test: Cell viability in acquired resistant subline; conditions: Homo sapiens
Procedure: as §3, §4

[8] = test system: Sunitinib resistant A204 cells (SunR); test: Cell viability in acquired resistant subline; conditions: Homo sapiens
Procedure: as §3, §4

[9] = test system: MES-SA cells; test: Cell viability (WST-1) dose response; conditions: Homo sapiens, 72 hours
Procedure: (§6) Cells were cultured in DMEM (A204, G402, Saos2, U2OS, HT1080, SW684, SW872, SW982, Hs729T, RUCH-3, T9195 and AN3CA), RPMI (RMS-YM and SJSA-1) or McCoy5A (MES-SA) media supplemented with 10% FBS/2 mM glutamine/100 units/ml penicillin/[…] streptomycin in 95% air/5% CO2 atmosphere at 37° C. For SILAC experiments, A204 cells and resistant sublines were cultured in SILAC DMEM media (Thermo Fisher Scientific) supplemented with light lysine and arginine (ROKO) (Sigma) and heavy lysine and arginine (R10K8) (Goss Scientific) respectively.
as §4

[10] = test system: SW684 cells; test: Cell viability (WST-1) dose response; conditions: Homo sapiens, 72 hours
Procedure: as §6, §4

[11] = test system: SAOS2 cells; test: Cell viability (WST-1) dose response; conditions: Homo sapiens, SAOS-2, 72 hours
Procedure: as §6, §4

[12] = test system: SW872 cells; test: Cell viability (WST-1) dose response; conditions: Homo sapiens, 72 hours
Procedure: as §6, §4

[13] = test system: RMS-YM cells; test: Cell viability (WST-1) dose response; conditions: 72 hours
Procedure: as §6, §4

[14] = test system: HT1080 cells; test: Cell viability (WST-1) dose response; conditions: Homo sapiens, HT-1080, 72 hours
Procedure: as §6, §4

[15] = test system: T91-95 cells; test: Cell viability (WST-1) dose response; conditions: 72 hours
Procedure: as §6, §4

[16] = test system: U2OS cells; test: Cell viability (WST-1) dose response; conditions: Homo sapiens, 72 hours
Procedure: as §6, §4

[17] = test system: SW982 cells; test: Cell viability (WST-1) dose response; conditions: Homo sapiens, 72 hours
Procedure: as §6, §4

[18] = test system: RUCH-3 cells; test: Cell viability (WST-1) dose response; conditions: 72 hours
Procedure: as §6, §4

[19] = test system: Hs729T cells; test: Cell viability (WST-1) dose response; conditions: 72 hours
Procedure: as §6, §4

[20] = test system: SJSA-1 cells; test: Cell viability (WST-1) dose response; conditions: Homo sapiens, 72 hours
Procedure: as §6, §4

[21] = test system: G402 cells (MRT cell line); test: Cell viability (WST-1) dose response; conditions: for IC50: Homo sapiens, G-402, G402, cell viability, 72 hours; for effect on cell viability: G402 cells, dose response
Procedure: as §5, §4

[22] = test system: MRT cells (A204 and G402); test: Apoptosis by Caspase-Glo 3/7 assay; conditions: caspase 3/7 activity
Procedure: as §4

[23] = 72 h, Pazopanib resistant A204 cell line, single and combination drug treatment, Table S3
[24] = A204 Pazopanib resistant subline, cell viability, Table S2

T1 sequence (P16234 24-1089): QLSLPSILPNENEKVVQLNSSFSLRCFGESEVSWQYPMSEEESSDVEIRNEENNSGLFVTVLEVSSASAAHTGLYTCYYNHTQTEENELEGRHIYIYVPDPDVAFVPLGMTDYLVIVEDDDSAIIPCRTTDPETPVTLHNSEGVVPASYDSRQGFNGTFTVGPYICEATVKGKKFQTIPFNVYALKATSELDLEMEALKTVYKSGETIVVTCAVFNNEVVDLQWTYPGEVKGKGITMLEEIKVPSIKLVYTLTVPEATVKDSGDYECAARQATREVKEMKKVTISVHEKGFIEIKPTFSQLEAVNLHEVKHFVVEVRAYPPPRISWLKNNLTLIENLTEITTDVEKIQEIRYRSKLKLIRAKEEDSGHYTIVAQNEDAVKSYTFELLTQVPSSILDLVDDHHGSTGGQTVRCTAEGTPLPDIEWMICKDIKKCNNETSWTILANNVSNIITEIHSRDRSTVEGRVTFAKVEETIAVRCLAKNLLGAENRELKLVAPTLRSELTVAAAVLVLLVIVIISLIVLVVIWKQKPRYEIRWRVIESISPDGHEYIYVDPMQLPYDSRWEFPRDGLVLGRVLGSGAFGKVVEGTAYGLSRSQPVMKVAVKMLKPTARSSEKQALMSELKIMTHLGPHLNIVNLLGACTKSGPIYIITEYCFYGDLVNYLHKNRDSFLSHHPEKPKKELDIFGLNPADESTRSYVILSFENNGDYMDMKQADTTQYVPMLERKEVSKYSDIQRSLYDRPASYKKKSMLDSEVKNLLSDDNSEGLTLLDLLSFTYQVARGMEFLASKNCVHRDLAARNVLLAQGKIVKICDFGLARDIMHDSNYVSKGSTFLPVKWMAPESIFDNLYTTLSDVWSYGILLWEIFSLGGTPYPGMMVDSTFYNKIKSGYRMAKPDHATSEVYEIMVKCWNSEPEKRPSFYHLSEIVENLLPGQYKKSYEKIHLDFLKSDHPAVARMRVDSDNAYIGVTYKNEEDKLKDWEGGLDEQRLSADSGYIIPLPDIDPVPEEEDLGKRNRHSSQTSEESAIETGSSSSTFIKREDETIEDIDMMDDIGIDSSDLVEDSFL

Compound: CCN1CCN(c2ccc(Nc3cc(N(C)C(=O)Nc4c(Cl)c(OC)cc(OC)c4Cl)ncn3)cc2)CC1 [BGJ398]
- AKT phosphorylation [1]: no effect
- PDGFRα phosphorylation [2]: no effects
- IC50 [3, 23]: 0.247 µM
- proportion of apoptotic cells compared to vehicle control [4]: significant increase
- effect on cell viability [5]: reduced viability
- ERK1/2 phosphorylation [6]: decreased

Compound: Cc1nc(Nc2ncc(C(=O)Nc3c(C)cccc3Cl)s2)cc(N2CCN(CCO)CC2)n1 [Dasatinib, dasatinib]
- IC50 [7]: > 10 µM
- IC50 [8]: > 10 µM
- IC50 [3, 24]: > 10 µM
- IC50 [9]: > 10 µM
- IC50 [10]: 0.0624 µM
- IC50 [11]: 1.15 µM
- IC50 [12]: 1.04 µM
- IC50 [13]: > 10 µM
- IC50 [14]: > 10 µM
- IC50 [15]: > 10 µM
- IC50 [16]: > 10 µM
- IC50 [17]: 188 nM
- IC50 [18]: > 10 µM
- IC50 [19]: > 10 µM
- IC50 [20]: > 10 µM
- IC50 ([5]; A204, 72 hours, Table S1): 41.8 nM
- IC50 ([5]; A204 Parental, Table S2): 41.8 nM
- IC50 [21]: 62.3 nM

Compound: Cc1ccc(Nc2nccc(N(C)c3ccc4c(C)n(C)nc4c3)n2)cc1S(N)(=O)=O [Pazopanib, pazopanib]
- IC50 [7]: > 10 µM
- IC50 [8]: > 10 µM
- IC50 [3, 23]: > 10 µM
- IC50 [3, 24]: > 10 µM
- IC50 [9]: > 10 µM
- IC50 [10]: > 10 µM
- IC50 [11]: > 10 µM
- IC50 [12]: > 10 µM
- IC50 [13]: > 10 µM
- IC50 [14]: > 10 µM
- IC50 [15]: > 10 µM
- IC50 [16]: > 10 µM
- IC50 [17]: > 10000 nM
- IC50 [18]: > 10 µM
- IC50 [19]: > 10 µM
- IC50 [20]: > 10 µM
- proportion of apoptotic cells compared to vehicle control [4]: no effect
- IC50 ([5]; A204, 72 hours, Table S1): 219 nM
- IC50 ([5]; A204 Parental, Table S2): 245 nM
- IC50 [21]: 238 nM

Compound: Cc1ccc(C(=O)Nc2ccc(CN3CCN(C)CC3)c(C(F)(F)F)c2)cc1C#Cc1cnc2cccnn12 [Ponatinib, 3-(2-imidazo[1,2-b]pyridazin-3-ylethynyl)-4-methyl-N-[4-[(4-methyl-1-piperazinyl)methyl]-3-(trifluoromethyl)phenyl]-benzamide]
- AKT phosphorylation [1]: suppression
- IC50 [3, 23]: 0.272 µM
- apoptosis [22]: enhanced apoptosis
- proportion of apoptotic cells compared to vehicle control [4]: significant increase
- effect on cell viability [5]: sensitive
- effect on cell viability [21]: sensitive
- ERK1/2 phosphorylation [6]: suppression

Compound: CCN(CC)CCNC(=O)c1c(C)[nH]c(/C=C2\C(=O)Nc3ccc(F)cc32)c1C [Sunitinib, sunitinib]
- IC50 [7]: 5.01 µM
- IC50 [8]: > 10 µM
- IC50 [3, 24]: > 10 µM
- IC50 [9]: > 10 µM
- IC50 [10]: > 10 µM
- IC50 [11]: 4.57 µM
- IC50 [12]: > 10 µM
- IC50 [13]: > 10 µM
- IC50 [14]: > 10 µM
- IC50 [15]: > 10 µM
- IC50 [16]: > 10 µM
- IC50 [17]: 582 nM
- IC50 [18]: > 10 µM
- IC50 [19]: > 10 µM
- IC50 [20]: > 10 µM
- IC50 ([5]; A204, 72 hours, Table S1): 36.3 nM
- IC50 ([5]; A204 Parental, Table S2): 36.3 nM
- IC50 [21]: 36.9 nM

Compound: AZD4547
- effect on cell viability [5]: ineffective
- effect on cell viability [21]: ineffective
